The conditions of data set [1]: metformin 750 mg single dose alone, fed, n=24.
Description: (§5) Subjects were admitted to hospital on Day 1 and were discharged on Day 12. […] On Day 3 and Days 5–11, subjects received peficitinib 150 mg (150 mg × 1 tablet), once daily. Subjects returned for an end-of-study examination on Day 15 ± 2.
(§6) The planned sample size was 24 subjects, based on the precedent set by other PK studies of a similar nature [21, 22]. The safety analysis set (SAF) consisted of all subjects who received at least one dose of study drug. The PK analysis set (PKAS) consisted of subjects who received the study drug and provided at least one estimable PK parameter. Plasma PK parameters were calculated by non-compartmental analysis using Phoenix(R) WinNonlin(R) software, version 6.2 (Certara USA, Inc., Princeton, NJ, USA). Baseline demographic and other characteristics, vital signs, clinical laboratory findings, 12-lead ECG results and TEAEs were summarised for the SAF using descriptive statistics.
(§7) Statistical analyses were performed using SAS(R) software, version 9.4 (SAS Institute Inc., Cary, NC, USA). […] The least-square (LS) geometric mean ratio (GMR) and its 90% confidence interval (CI) were calculated using the exponential-transformed LS geometric mean difference and CI. Missing data were not imputed or used for analyses.
Data set [2] is described as follows: clinical. The conditions noted are these: male, human, plasma, po, 750 mg, metformin 750 mg single dose alone, fed, n=24; for AUC(0-inf): Plasma AUCinf of metformin; for Cmax: Plasma Cmax of metformin.
Description: as §5, §6, §7
Data set [3] addresses T1, OCT1 (Homo sapiens, UniProt O15245).
T1 construct: containing full-length human transporter cDNA; host or cells: HEK293
T1 sequence (O15245 1-554): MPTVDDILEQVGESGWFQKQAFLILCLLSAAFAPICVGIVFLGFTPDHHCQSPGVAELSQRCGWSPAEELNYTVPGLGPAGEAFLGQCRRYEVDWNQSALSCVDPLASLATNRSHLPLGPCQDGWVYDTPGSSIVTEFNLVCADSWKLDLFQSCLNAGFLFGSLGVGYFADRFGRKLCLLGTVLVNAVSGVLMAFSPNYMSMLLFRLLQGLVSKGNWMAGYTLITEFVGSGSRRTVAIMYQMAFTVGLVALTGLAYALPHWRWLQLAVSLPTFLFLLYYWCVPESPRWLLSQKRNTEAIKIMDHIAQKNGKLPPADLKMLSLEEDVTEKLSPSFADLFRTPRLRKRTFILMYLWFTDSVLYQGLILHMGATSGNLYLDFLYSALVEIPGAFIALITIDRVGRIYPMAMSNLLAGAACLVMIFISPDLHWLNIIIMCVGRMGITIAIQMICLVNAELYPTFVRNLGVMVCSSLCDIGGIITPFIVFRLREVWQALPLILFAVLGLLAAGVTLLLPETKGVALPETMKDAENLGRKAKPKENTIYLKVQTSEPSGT
Briefly: Inhibition of [14C]metformin uptake into OCT1-expressing HEK293 cells. It is filed as cell-based. The text has this:
(§1) Human embryonic kidney (HEK293) cells expressing OCT1, OCT2, MATE1 and MATE2-K were established at the ADME & Tox. Research Institute (Sekisui Medical Co., Ltd, Ibaraki, Japan) by transfection of a pcDNA vector (Invitrogen, Carlsbad, CA, USA) containing full-length human transporter cDNA. Control HEK293 cells were established by transfection of the empty vector. The expression level of transporter mRNA in transfected cells was verified periodically by real-time polymerase chain reaction. […] The cells were maintained at 37 °C with 5% CO2 in DMEM containing 10% FBS with antibiotic-antimycotics and L-glutamine.
(§2) Assays were performed in triplicate. […]
(§3) After incubation, the test solution was removed, and the cells were washed once with ice-cold 0.2% bovine serum albumin in phosphate-buffered saline (PBS) and twice with 1 mL of ice-cold PBS. […] After the cell lysate was mixed by pipetting, 0.3 mL (OCT1, OCT2, and MATE1) or 0.5 mL (MATE2-K) of the lysate was collected into a glass vial and mixed with 10 mL of the scintillator Hionic-fluor (PerkinElmer, Inc., Waltham, MA, USA) to measure the radioactivity using a liquid scintillation counter (2500TR [PerkinElmer, Inc.]).
(§4) Protein content was measured using the BCA Protein Assay Kit (Thermo Fisher Scientific, Inc., Waltham, MA, USA, or Pierce, Rockford, IL, USA) in accordance with the manufacture’s recommendations. […]

For data set [4], the target named is T2, OCT2 (Homo sapiens, UniProt O15244).
T2 construct: containing full-length human transporter cDNA; host or cells: HEK293
T2 sequence (O15244 1-555): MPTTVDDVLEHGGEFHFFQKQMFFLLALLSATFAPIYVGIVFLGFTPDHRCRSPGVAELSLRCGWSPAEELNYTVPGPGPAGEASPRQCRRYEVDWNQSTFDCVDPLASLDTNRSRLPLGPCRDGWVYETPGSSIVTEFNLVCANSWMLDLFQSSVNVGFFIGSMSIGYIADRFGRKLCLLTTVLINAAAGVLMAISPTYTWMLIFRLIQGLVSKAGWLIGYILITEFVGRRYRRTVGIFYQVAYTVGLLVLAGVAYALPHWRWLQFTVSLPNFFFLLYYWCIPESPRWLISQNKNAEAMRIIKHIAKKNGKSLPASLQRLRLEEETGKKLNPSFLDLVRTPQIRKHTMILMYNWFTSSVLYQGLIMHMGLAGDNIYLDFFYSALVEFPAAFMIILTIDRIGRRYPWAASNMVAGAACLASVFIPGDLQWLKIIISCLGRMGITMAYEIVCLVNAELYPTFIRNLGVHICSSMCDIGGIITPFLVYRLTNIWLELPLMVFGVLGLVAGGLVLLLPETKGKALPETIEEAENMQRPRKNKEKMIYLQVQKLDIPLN
Briefly: Inhibition of [14C]metformin uptake into OCT2-expressing HEK293 cells. It is filed as cell-based.
Source text: as §1, §2, §3, §4

In data set [5] the target is T3, MATE1 (Homo sapiens, UniProt Q96FL8).
T3 construct: containing full-length human transporter cDNA; host or cells: HEK293
T3 sequence (Q96FL8 1-570): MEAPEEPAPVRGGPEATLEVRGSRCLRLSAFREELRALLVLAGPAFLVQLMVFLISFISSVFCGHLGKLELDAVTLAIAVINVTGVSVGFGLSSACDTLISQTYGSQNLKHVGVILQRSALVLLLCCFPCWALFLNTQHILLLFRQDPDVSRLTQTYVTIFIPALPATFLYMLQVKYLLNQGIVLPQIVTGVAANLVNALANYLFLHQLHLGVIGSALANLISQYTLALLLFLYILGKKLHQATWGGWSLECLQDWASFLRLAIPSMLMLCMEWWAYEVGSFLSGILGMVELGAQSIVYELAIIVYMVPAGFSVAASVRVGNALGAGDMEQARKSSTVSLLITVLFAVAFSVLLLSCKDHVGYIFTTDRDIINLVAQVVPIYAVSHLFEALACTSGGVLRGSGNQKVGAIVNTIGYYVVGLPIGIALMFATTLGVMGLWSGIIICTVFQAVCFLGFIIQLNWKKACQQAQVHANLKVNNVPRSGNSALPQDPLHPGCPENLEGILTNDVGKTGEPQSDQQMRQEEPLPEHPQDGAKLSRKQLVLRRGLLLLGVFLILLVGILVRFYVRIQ
Briefly: Inhibition of [14C]metformin uptake into MATE1-expressing HEK293 cells. It is filed as cell-based.
Source text: as §1, §2, §3, §4

Data set [6] deals with T4, MATE2-K (Homo sapiens, UniProt Q86VL8).
T4 construct: containing full-length human transporter cDNA; expressed in transfected cells; host or cells: HEK293 (transient transfection)
Briefly: Inhibition of [14C]metformin uptake into MATE2-K-expressing HEK293 cells. It is filed as cell-based.
Source text: as §1, §2, §3, §4

A short description of data set [7]: Clinical drug-drug interaction study: safety (treatment-emergent adverse events). It is filed as in vivo, healthy male subjects. How it is done: Safety assessments were undertaken from screening through to the final study assessment. Safety was assessed by the monitoring of adverse events, vital signs (supine blood pressure, supine pulse and axillary temperature), clinical laboratory tests (haematology, biochemistry and urinalysis) and 12-lead electrocardiograms (ECGs).
TEAEs were graded using the National Cancer Institute’s Common Terminology Criteria for Adverse Events (NCI CTCAE) guidelines (version 4.0).

Data set [8] is described as follows: Earlier clinical pharmacokinetic and mass balance studies of peficitinib. It is filed as in vivo, healthy subjects. The settings on record: single oral dose of 150 mg, fasted; calculated from 524.5 ng/mL assuming 72.83% protein bound.
For data set [9] the following is noted: cited from earlier work.
Details of data set [10]: method as in earlier work. The settings on record: cited from earlier work.
[11] abbreviates: single oral dose of [14C]peficitinib, six healthy male subjects.

Each structure is given as a SMILES string.

T4 sequence (Q86VL8 1-566 isoform Q86VL8-3): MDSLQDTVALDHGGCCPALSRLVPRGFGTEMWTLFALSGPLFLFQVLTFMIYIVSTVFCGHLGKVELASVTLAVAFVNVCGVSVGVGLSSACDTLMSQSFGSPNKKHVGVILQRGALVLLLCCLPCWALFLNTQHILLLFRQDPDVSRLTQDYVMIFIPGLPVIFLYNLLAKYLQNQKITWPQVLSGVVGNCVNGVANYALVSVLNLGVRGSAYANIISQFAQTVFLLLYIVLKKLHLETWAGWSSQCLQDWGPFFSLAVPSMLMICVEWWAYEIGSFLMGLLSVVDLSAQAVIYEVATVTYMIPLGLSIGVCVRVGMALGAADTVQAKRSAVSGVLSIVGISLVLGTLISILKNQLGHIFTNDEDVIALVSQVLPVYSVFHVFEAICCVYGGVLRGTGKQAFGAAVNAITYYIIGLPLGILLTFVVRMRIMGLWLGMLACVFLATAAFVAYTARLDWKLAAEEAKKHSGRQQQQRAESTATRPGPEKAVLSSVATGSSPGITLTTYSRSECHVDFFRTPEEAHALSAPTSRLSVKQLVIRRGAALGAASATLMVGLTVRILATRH

Take `CN(C)C(=N)N=C(N)N` [Metformin]: in data set [1], the “CL/F of metformin, mean (SD)” value is listed as 83.6 (12.5) L/h; the “CL/F of metformin, median” value turned out to be 82.9 L/h; the “CL/F of metformin, min-max” value was 60.2 to 110 L/h; the “Plasma AUClast of metformin, mean (SD)” value is reported as 9050 (1410) ng∙h/mL. Moreover, in [1], the “Plasma AUClast of metformin, median” value was 8990 ng·h/mL; the “Urine Aelast% of metformin, mean (SD)” value was 38.6 (3.77) %; the “Urine Aelast% of metformin, median” value came out at 37.7%; the “Urine Aelast% of metformin, min-max” value is recorded as 33.0–49.8%. In addition, the “tmax of metformin, median” value in data set [1] is given as 3.00 h. Also, in data set [2] (median), the AUC(0-inf) (in general, the area under the concentration-time curve extrapolated to infinity) came to 9050 ng·h/mL and the Cmax (as a rule, the highest concentration seen after dosing) came out at 1380 ng/mL. In data set [2] (min-max), this compound yielded an AUC(0-inf) of 6820 to 12500 ng·h/mL and a Cmax of 973 to 2030 ng/mL. Also, in data set [2] (mean (SD)), the Cmax was 1380 ng/mL.
For `NC(=O)c1cnc2[nH]ccc2c1N[C@@H]1[C@@H]2CC3C[C@H]1C[C@@](O)(C3)C2` [Peficitinib], the IC50 (usually the point on the concentration scale where inhibition reaches its midpoint) in data set [3] is 0.247 µM. Besides, it took 71.4 µM to reach half-maximal inhibition in data set [4] (IC50). Also, the midpoint of inhibition in [5], the IC50, lay at 10 µM. In addition, in [6], the IC50 amounted to 20.8 µM. Further, the Tolerability entry in data set [7] (peficitinib 150 mg, metformin 750 mg, no serious TEAEs or TEAEs leading to treatment withdrawal) is on record as “generally well tolerated”. In addition, in data set [7] (peficitinib alone phase, 150 mg once daily, 3/24 subjects, four mild (Grade 1) TEAEs, all considered drug related), the “Subjects with TEAEs” value was 12.5%. Further, in data set [7] (peficitinib alone phase, 1/24), the “Increased aspartate aminotransferase, subjects” value amounted to 4.2% and the “Soft faeces, subjects” value was 4.2%. Also, the “Increased alanine aminotransferase, subjects” value in data set [7] (peficitinib alone phase, 2/24) came out at 8.3%. Moreover, the “Cmax of unbound peficitinib” value in data set [8] is 440 nM. The “Urinary excretion, share of an oral dose” value in [9] (single and multiple doses, healthy subjects, two Phase I trials) is recorded as 9–15%. Moreover, the Cmax of peficitinib in data set [9] (single oral dose of 150 mg, fasted conditions) is recorded as 524.5 ng/mL. The “Share of the peficitinib dose absorbed” value in data set [9] (single oral dose of [14C]peficitinib, six healthy male subjects, assuming stability in the gastrointestinal tract) is on record as “approximately 64%”. Moreover, in data set [9] (setting [11]), the “Mean faecal excretion as unchanged peficitinib, share of administered dose” value is 29.8%; the “Mean recovery in faeces” value was 56.6%; the “Mean recovery in urine” value is 36.8%. In addition, the Protein bound in [10] was 72.83%.
With `CN/C(=N/CCSCc1nc[nH]c1C)NC#N` [cimetidine, reference compound], the “[14C]metformin uptake into MATE1-expressing cells, % of uptake in the absence of inhibitors” value in data set [5] (typical inhibitor, cimetidine 10 μmol/L) was 11.9–14.7%. Further, the “[14C]metformin uptake into MATE2-K-expressing cells, % of uptake in the absence of inhibitors” value in data set [6] (typical inhibitor, cimetidine 100 μmol/L) is 8.2–15.1%.
